Consider 14 molecules from ChEMBL document CHEMBL4819044, “Discovery of a Hydroxypyridinone APJ Receptor Agonist as a Clinical Candidate” (J Med Chem, 2021).

The nature of data set [1]: Solubility of compound in phosphate buffer pH 7.4 using excess solid incubated for 24 hrs under agitation condition by reverse phase LC analysis. The class given is physicochemical.
In data set [2] the target is T1, Apelin receptor (Homo sapiens, UniProt P35414).
T1 sequence (P35414 whole entry): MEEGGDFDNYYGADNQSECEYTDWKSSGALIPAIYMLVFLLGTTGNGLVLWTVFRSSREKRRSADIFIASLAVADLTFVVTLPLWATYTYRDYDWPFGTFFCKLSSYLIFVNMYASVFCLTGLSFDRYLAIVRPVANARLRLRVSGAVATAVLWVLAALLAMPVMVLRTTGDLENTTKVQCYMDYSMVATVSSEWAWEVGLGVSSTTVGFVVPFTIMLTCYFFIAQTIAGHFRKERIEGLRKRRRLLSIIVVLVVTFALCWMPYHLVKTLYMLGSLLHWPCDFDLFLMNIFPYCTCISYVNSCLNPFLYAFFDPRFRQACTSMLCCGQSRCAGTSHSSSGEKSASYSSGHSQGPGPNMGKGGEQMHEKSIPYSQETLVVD
The data set is described as follows: Agonist activity at human APJ receptor expressed in human HEK293 cells assessed as inhibition of forskolin-induced cAMP accumulation incubated for 1 hr by TR-FRET assay. In kind it is functional, cell-based.

The target of data set [3] is T2, Apelin receptor (Rattus norvegicus, UniProt Q9JHG3).
T2 sequence (Q9JHG3 whole entry): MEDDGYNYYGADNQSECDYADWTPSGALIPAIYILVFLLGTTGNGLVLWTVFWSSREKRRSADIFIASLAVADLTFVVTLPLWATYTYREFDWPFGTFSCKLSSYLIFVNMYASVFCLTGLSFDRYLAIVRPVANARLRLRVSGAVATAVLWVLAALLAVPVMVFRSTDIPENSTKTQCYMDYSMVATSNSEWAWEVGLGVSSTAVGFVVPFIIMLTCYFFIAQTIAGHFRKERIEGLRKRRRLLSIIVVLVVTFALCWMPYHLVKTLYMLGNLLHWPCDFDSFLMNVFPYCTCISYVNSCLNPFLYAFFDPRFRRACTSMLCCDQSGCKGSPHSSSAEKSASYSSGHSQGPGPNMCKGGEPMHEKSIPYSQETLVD
Briefly: Agonist activity at rat APJ receptor expressed in human HEK293 cells assessed as inhibition of forskolin-induced cAMP accumulation incubated for 1 hr by TR-FRET assay. The class given is functional, cell-based.

Data set [4] can be described thus: Metabolic stability in human liver microsomes assessed as parent compound remaining incubated for 10 mins in presence of NADPH by triple quadrupole mass spectrometry. The class given is ADME, Microsome. Particulars: read-out: Stabilty. Background: Microsomes from liver hold many membrane-bound enzymes, among them those of drug oxidation.
Data set [5] in a line: Metabolic stability in rat liver microsomes assessed as parent compound remaining incubated for 10 mins in presence of NADPH by triple quadrupole mass spectrometry. Particulars: read-out: Stabilty. In kind it is ADME, Microsome.
Data set [6] has as its target T1, Apelin receptor. Briefly: Displacement of [3H]Apelin-13 from human APJ receptor stably expressed in human HEK293 cell membrane incubated for 120 mins by TopCount scintillation plate reader analysis. The class given is cell membranes. For orientation: Loss of bound radioactivity is the signal in a displacement assay; it reports binding, not function.
Data set [7] in a line: Half life in Sprague-Dawley rat at 3 mg/kg, po measured up to 48 hrs by LC/MS/MS analysis. Particulars: in vivo.
Data set [8] is described as follows: Oral bioavailability in Sprague-Dawley rat at 3 mg/kg measured measured up to 48 hrs by LC/MS/MS analysis. In kind it is ADME, organism-based. Particulars: in vivo.
Data set [9] in a line: Half life in cynomolgus monkey at 3 mg/kg, po measured measured up to 72 hrs by LC/MS/MS analysis. The settings on record: in vivo.
A short description of data set [10]: Oral bioavailability in cynomolgus monkey at 3 mg/kg measured measured up to 72 hrs by LC/MS/MS analysis. The settings on record: in vivo. The class given is ADME, organism-based, Macaca fascicularis.
Data set [11] can be described thus: Renal clearance in Sprague-Dawley rat at 3 mg/kg, po measured up to 48 hrs by LC/MS/MS analysis. The class given is ADME, organism-based. Particulars: in vivo.
A short description of data set [12]: Stability in human liver microsomes assessed as parent compound remaining at 30 uM incubated for 45 mins. The settings on record: read-out: Stabilty. The class given is ADME, Microsome.
The nature of data set [13]: Stability in rat liver microsomes assessed as parent compound remaining at 30 uM incubated for 45 mins. The class given is ADME, Microsome. The settings on record: read-out: Stabilty.
Data set [14] in a line: Stability in monkey liver microsomes assessed as parent compound remaining at 30 uM incubated for 45 mins. The class given is ADME, Macaca mulatta, Microsome. Particulars: rhesus monkey, read-out: Stabilty.
Data set [15] can be described thus: Glutathione reactivity of the compound assessed as GSH-adduct formation. In kind it is physicochemical.
The subject of data set [16] is Rattus norvegicus. Briefly: Hemodynamic activity in Sprague-Dawley rat model of acute pressure-volume loop assessed as increase in cardiac output at 10 ug/kg/min administered as iv infusion measured at 5 mins relative to control. In kind it is functional. The settings on record: dose 10 µg/kg/min.
Data set [17] deals with Rattus norvegicus. Briefly: Hemodynamic activity in Sprague-Dawley rat model of acute pressure-volume loop assessed as peripheral vasodilation by measuring free plasma drug concentration at 10 ug/kg/min administered as iv infusion measured at 5 mins. In kind it is functional. Particulars: dose 10 µg/kg/min.
The nature of data set [18]: cells. Particulars: Canis lupus familiaris, HEK293, 1 h.
Data set [19] in a line: cells. The settings on record: Macaca mulatta, HEK293, 1 h.
Data set [20] in a line: in vivo. The settings on record: Sprague-Dawley, rat, po, 3 mg/kg.
Description: Cmax in Sprague-Dawley rat at 3 mg/kg, po measured up to 48 hrs by LC/MS/MS analysis
Data set [21] in a line: in vivo. Particulars: Sprague-Dawley, rat, po, 3 mg/kg. This is another data set of the same source.
Description: AUC (0 to infinity) in Sprague-Dawley rat at 3 mg/kg, po measured up to 48 hrs by LC/MS/MS analysis
The nature of data set [22]: in vivo. Particulars: cynomolgus monkey, po, 3 mg/kg.
Description: Cmax in cynomolgus monkey at 3 mg/kg, po measured measured up to 48 hrs by LC/MS/MS analysis
Data set [23] can be described thus: in vivo. The settings on record: cynomolgus monkey, po, 3 mg/kg. The source holds these as a separate data set.
Description: AUC (0 to infinity) in cynomolgus monkey at 3 mg/kg, po measured measured up to 72 hrs by LC/MS/MS analysis
Data set [24] can be described thus: Urinary excretion in cynomolgus monkey at 3 mg/kg, po measured measured up to 72 hrs by LC/MS/MS analysis. Particulars: in vivo.

The structures appear in SMILES notation. Values after ≈ are worked out from the molar mass of the structure shown. Where only a bound is given, the exact number is not on record here.

On to `COc1cccc(OC)c1-c1c(C2CCCC2)[nH]c(=O)c(-c2nnc(Cc3ccc(Cl)cc3)o2)c1O`, for which the thermodynamic solubility at 24 h in [1] stood at 4 µg/mL (≈ 7.87 µM). The results for the EC50 in data set [2] and in data set [3] were 0.24 nM and 0.51 nM, respectively. The remaining at 10 min in data set [4] amounted to 80%; in [5] it was 66%.

As for `COc1cccc(OC)c1-c1c(C2CC2)[nH]c(=O)c(-c2nnc(Cc3ccc(Cl)cc3)o2)c1O`, in [1], the thermodynamic solubility at 24 h turned out to be 12 µg/mL (≈ 25 µM). In addition, the EC50 in data set [2] came to 11 nM; in data set [3], 15 nM. Besides, the remaining at 10 min amounted to 88% in [4] and 51% in [5].

`CCCCc1nc(O)c(-c2nnc(Cc3ccccc3Cl)o2)c(O)c1-c1c(OC)cccc1OC`: the EC50 came out at 8.6 nM in [2] and 18 nM in data set [3]. For the same molecule, the values for the remaining at 10 min in [4] and in data set [5] were 82% and 24%, respectively.

Take `CCCCc1[nH]c(=O)c(-c2nnc(Cc3ccccc3)o2)c(O)c1-c1c(OC)cccc1OC`: in data set [3], the EC50 is 31 nM. Also, the remaining at 10 min was 87% in data set [4] and 53% in data set [5].

On to `COCCc1[nH]c(=O)c(-c2nnc(Cc3ccc(Cl)cc3)o2)c(O)c1-c1c(OC)cccc1OC`, for which, in [1], the solubility (thermodynamic) at 24 h was 73 µg/mL (≈ 147 µM). Moreover, in [3], the EC50 turned out to be 1.4 nM. Further, the remaining at 10 min was found to be 86% in data set [4] and 73% in [5].

In [1], `CCCCc1nc(O)c(-c2nnc(Cc3ccc(Cl)cc3)o2)c(O)c1-c1c(OC)cccc1OC` gave a thermodynamic solubility at 24 h of less than 1 µg/mL. Besides, the EC50 in data set [2] was determined as 0.4 nM; in [3], 1.2 nM. Also, the remaining at 10 min in data set [4] is 66%; in [5], 22%.

For `CCCCc1[nH]c(=O)c(C(=O)OCC)c(O)c1-c1c(OC)cccc1OC`, in data set [3], the EC50 stood at 980 nM. Besides, the remaining at 10 min in data set [4] amounted to 89%; in data set [5], 24%.

With `CCCCc1nc(O)c(-c2nnc(Cc3cccc(Cl)c3)o2)c(O)c1-c1c(OC)cccc1OC`, the EC50 in data set [2] amounted to 2.6 nM; in data set [3], 7.3 nM. Besides, the remaining at 10 min in [4] amounted to 88%; in [5], 38%.

`CCOCc1nc(O)c(-c2nnc(Cc3ccc(Cl)cc3)o2)c(O)c1-c1c(OC)cccc1OC` displayed a solubility (thermodynamic) at 24 h in data set [1] of 26 µg/mL (≈ 52.2 µM). In addition, the results for the EC50 in data set [2] and in data set [3] were 0.12 nM and 0.23 nM, respectively. In addition, the remaining at 10 min in [4] was determined as 94%; in data set [5], 74%.

Take `CCCCc1[nH]c(=O)c(-c2nc(Cc3ccccc3)no2)c(O)c1-c1c(OC)cccc1OC`: in [3], the EC50 stood at 120 nM. The remaining at 10 min in data set [4] was determined as 69%; in [5], 54%.

In the case of `CCCCc1[nH]c(=O)c(-c2n[nH]c(Cc3ccccc3)n2)c(O)c1-c1c(OC)cccc1OC`, the EC50 in [3] amounted to 430 nM. Moreover, the remaining at 10 min in [4] was found to be 36%; in data set [5], 15%.

In data set [1], `CCOCc1[nH]c(=O)c(-c2nnc(Cc3ccc(Cl)nc3)o2)c(O)c1-c1c(OC)cccc1OC` gave a solubility (thermodynamic) at 24 h of 110 µg/mL (≈ 220 µM). The EC50 came out at 0.17 nM in data set [2] and 0.58 nM in data set [3]. Further, the results for the remaining at 10 min in data set [4] and in [5] were 96% and 76%, respectively.

As for `CCCCc1[nH]c(=O)c(-c2nnc(-c3ccc(Cl)cc3)o2)c(O)c1-c1c(OC)cccc1OC`, in [3], the EC50 worked out at 450 nM. Further, the remaining at 10 min in [4] stood at 99%; in data set [5], 36%.

Take `CCOCc1nc(O)c(-c2nnc(Cc3ccc(Cl)cn3)o2)c(O)c1-c1c(OC)cccc1OC` [BMS-986224]: in [1], the solubility (thermodynamic) at 24 h amounted to 220 µg/mL (≈ 441 µM). Further, the EC50 in data set [2] was 0.023 nM; in data set [3] it was 0.024 nM; in [18] it was 0.03 nM; in [19], 0.08 nM. Further, the remaining at 10 min turned out to be 91% in data set [4] and 92% in data set [5]. The molecule further had a Ki in data set [6] of 0.074 nM. Further, the half-life at 48 h in data set [7] is 2.5 h. Moreover, the bioavailability turned out to be 77% in data set [8] and 56% in [10]. Besides, the half-life at 72 h in data set [9] was 3.6 h. This molecule gave a dose excreted at 48 h in [11] of 4%. Further, the remaining at 0.75 h, 30 µM in data set [12], in data set [13] and in data set [14] was more than 95% throughout. Further, the Drug metabolism entry in data set [15] is on record as “Not Active”. Further, the Activity in [16] stood at 12%. The “Cp(f)” value in data set [17] was 18 nM. The Cmax at 48 h in data set [20] worked out at 5.6 µM; in data set [22] it was 1.5 µM. For the same molecule, in data set [21], the AUC(0-inf) at 48 h came to 34 µM·h. In addition, in data set [23], the AUC(0-inf) at 72 h worked out at 15.3 µM·h. For the same molecule, the “dose excreted in urine” value in data set [24] was 12%.

The solubility (thermodynamic) is the concentration in solution at equilibrium with solid. The EC50 is the concentration at which the effect is half-maximal. As a reminder, the Ki is a measure of affinity in units of concentration, obtained from inhibition or displacement. What is called half-life is the time needed for the level to fall by half in the phase considered. By bioavailability is commonly meant the share of a dose that reaches the circulation, judged against a reference dose that is usually intravenous. The Cmax is the peak of the concentration-time curve. For orientation: AUC(0-inf) means the area under the concentration-time curve extrapolated to infinity.
